Reference: patent publication US20140371189A1, “TESTOSTERONE REPLACEMENT THERAPY IN ANIMALS, INCLUDING DOGS” (David Bieber Consulting, LLC, priority 2013, published 2014)

Key:
[1] = injectable ester; cited from earlier work
[2] = cited from earlier work; for effectiveness when taken orally: oral
[3] = test system: neutered male Cocker Spaniel with declines in mobility and arthritis; experiment: Example 2: clinical outcome and side effects in a neutered male Cocker Spaniel
Protocol: (§1) A 28.7 pound, 12 year and two month-old neutered male Cocker Spaniel named Blackjack was evaluated because of his owner's concerns about declines in his level of mobility and arthritis.
(§2) During month one of the protocol, Blackjack was screened for treatment by conducting a thorough physical exam, complete blood chemistry, urinalysis, and testosterone level. […] An initial injection of testosterone IM was administered and Blackjack began treatment with Previcoxx 57 mg once per day. A follow-up was conducted by phone one day after the initial injection and again at two weeks post injection.
(§3) Previcoxx was discontinued and Metacam was prescribed. During a follow-up appointment Blackjack received an injection of testosterone IM. […] It was decided to increase the dosage of testosterone.
Radiographs were taken to rule out degenerative joint disease and neoplasia. During month three, the patient received another injection of testosterone IM. […] Blackjack was then operated on to treat the fracture.
Monthly injections of testosterone continued. The dosage of testosterone had to be lowered after surgery due to concerns about Blackjack being too active after surgery to repair his fracture and was raised again after healing was complete. During month nine, Blackjack underwent further surgery to remove multiple skin growths.
During month ten Blackjack received an injection of testosterone, returning him to the dosage he received prior to his injury and subsequent surgery. […] During month twelve Blackjack continued receiving testosterone injections, and during month thirteen additional skin growths had to be removed.

[4] = Example 2: blood testosterone level during testosterone therapy; settings: for testosterone level: dog Blackjack
Protocol: as §1, §2, §3
At this time a regular annual exam was conducted.

[5] = free, non-esterified form; cited from earlier work
[6] = test system: dogs compromised by osteoarthritis, intervertebral disc disease, hip dysplasia, weakness due to old age, muscle atrophy and joint pain; experiment: Example 1: testosterone replacement therapy study, medical record review; format: in vivo, dog
Text: In order to treat dogs, horses, or other animals in need of testosterone replacement therapy, the following protocol should be followed: • (1) Obtain information about potential patient via a clinical intake process and questionnaire such as the example shown in the drawing figure; • (2) Conduct a general physical examination on potential patient; • (3) Conduct laboratory tests on potential patient's blood and/or urine, including measuring initial testosterone levels in the patient's blood. This can be total testosterone or free testosterone. […]
A study was undertaken to determine if dogs compromised by osteoarthritis (also known as degenerative joint disease), intervertebral disc disease, hip dysplasia, weakness due to old age, muscle atrophy and joint pain experienced improvements following testosterone replacement therapy. […] Data from the medical records were analyzed to determine the efficacy of the treatment protocol. Data recorded from medical records included breed, date of birth, age, sex, neutered vs. intact, baseline testosterone level, date of testosterone injections and improvement status (improved vs. no noticeable improvement). […]
Following informed assent by each dog owner, each dog underwent an initial clinical exam including a detailed health history, list of medications, a CBC, urinalysis and baseline testosterone level were conducted. […] Changes in mobility, pain level/medications needed, energy and muscle tone were assessed and testosterone dosage was adjusted if needed prior to each injection. Follow-up testosterone levels were measured one week after the initial injection and on an as needed basis throughout the course of treatment. […]

In the case of `C[C@]12CC[C@H]3[C@@H](CCC4=CC(=O)CC[C@@]43C)[C@@H]1CC[C@@H]2OC(=O)CCC1CCCC1` [Testosterone cypionate], the release time [1] is listed as 8 to 10 days.
In the case of Testosterone propionate, the release time [1] is listed as 3 to 4 days.
For `CCCCCCCCCCC(=O)O[C@H]1CC[C@H]2[C@@H]3CCC4=CC(=O)CC[C@]4(C)[C@H]3CC[C@]12C` [testosterone undecanoate], the “effectiveness when taken orally” value [2] is given as “effective when taken orally” and the “time to elimination from the body” value ([2]; orally administered) is given as 3 to 4 h.
For `C[C@]12CC[C@H]3[C@@H](CCC4=CC(=O)CC[C@@]43C)[C@@H]1CC[C@@H]2O` [testosterone], the “healing of distal humeral lateral condylar fracture while being treated” value ([3]; after surgery) was “completely healed from this fracture within two months of surgery”, the side effects ([3]; follow-up one day and two weeks after initial IM injection) was “No side effects were reported” and the “behaviour leading to dosage decrease” value ([3]; month eleven) was “mounting other dogs”. The owner-reported improvements ([3]; owner interview in week 57 of the protocol) was “improvements in Blackjack's ability to jump on furniture, ascend and descend stairs, and rise from sitting and lying positions”, the “adverse side effects from the treatment” value ([3]; whole course of treatment) was “no adverse side effects” and the “effectiveness when taken orally” value [2] was “not effective”. For the same compound, the testosterone level ([4]; second month, one week after second IM injection, baseline <40 pg/ml) was 604.80 pg/mL, the testosterone level ([4]; third measurement (month three/four) after increased IM dosage) was 1224.50 pg/mL and the concentration at 4 month ([4]; male, Cocker Spaniel, dog, blood, intramuscular) was 1.22 ng/mL. For the same compound, the “solubility in oil and water” value [5] was “poor solubility in both oil and water”, the “subjects that made improvements after the study protocol” value ([6]; 25 dogs analysed, n=23 improved, monthly testosterone injections, improvement = more mobility and/or energy, less pain medication, less muscle atrophy) was “ninety-two” and the side effects ([6]; evaluated at monthly follow-ups, all dogs) was “no side effects were observed”. The “dogs whose injection dosages had to be lowered due to becoming too active” value ([6]; two of 25 dogs) was 8%.
For `CCCCCCC(=O)O[C@H]1CC[C@H]2[C@@H]3CCC4=CC(=O)CC[C@]4(C)[C@H]3CC[C@]12C` [Testosterone enanthate], the release time [1] is given as 8 to 10 days.
In the case of `C[C@]12CC[C@H]3[C@@H](CCC4=CC(=O)CC[C@@]43C)[C@@H]1CC[C@@H]2OC(=O)CCc1ccccc1` [Testosterone phenylpropionate], the release time [1] is given as 1-3 weeks.
